Laboratory results as given in EPA's ToxRefDB 2.

Legend:
mouse [1] = settings: Prenatal developmental toxicity study, swiss albino, Oral, Gavage/Intubation, dose end: 16 GD
rat [2] = settings: Prenatal developmental toxicity study, sprague dawley, Injection, Intramuscular, dose end: 15 GD
rat [3] = settings: Prenatal developmental toxicity study, sprague dawley, Injection, Subcutaneous, dose end: 15 GD
rat [4] = settings: Prenatal developmental toxicity study, wistar, Injection, Intramuscular, dose end: 15 GD
rat [5] = settings: Prenatal developmental toxicity study, sprague dawley, Oral, [Not Specified], dose end: 15 GD
rat [6] = settings: Prenatal developmental toxicity study, sprague dawley, Oral, Gavage/Intubation, dose end: 19 GD
rat [7] = settings: Prenatal developmental toxicity study, sprague dawley, Oral, Gavage/Intubation, dose end: 19 GD; remark: listed apart in the source
mouse [8] = settings: Prenatal developmental toxicity study, other, Oral, Water, dose end: 19 GD
[9] = group: developmental, developmental / developmental malformation / general / hemorrhage + developmental / developmental malformation / kidney / dilated renal …
[10] = group: maternal, reproductive / reproductive performance / implantations / implantations + reproductive / reproductive performance / postimplantation loss / …
[11] = group: developmental, developmental / developmental malformation / bone / wavy + developmental / developmental malformation / heart / membranous ventricular …
[12] = group: developmental, developmental / developmental malformation / bone / wavy + systemic / in life observation / body weight / fetal weight
[13] = group: maternal, reproductive / reproductive performance / postimplantation loss / postimplantation loss
[14] = group: developmental, developmental / developmental malformation / bone / unossified + systemic / in life observation / body weight / fetal weight
[15] = group: maternal, systemic / in life observation / body weight / body weight gain + systemic / in life observation / clinical signs / salivation
[16] = group: maternal, systemic / in life observation / body weight / body weight gain + systemic / in life observation / clinical signs / salivation + systemic / …
[17] = group: maternal, reproductive / reproductive performance / postimplantation loss / postimplantation loss + reproductive / reproductive performance / …
[18] = group: developmental, developmental / developmental malformation / bone / delayed ossification + developmental / developmental malformation / bone / exencephaly…
[19] = group: maternal, reproductive / reproductive performance / resorptions / resorptions + systemic / in life observation / body weight / body weight + systemic…

In the case of `CC(C)OC(=O)C(C)(C)Oc1ccc(C(=O)c2ccc(Cl)cc2)cc1` [Fenofibrate], the LEL (mouse [1]; [9]) is reported as 11.7 mg/kg/day, the LOAEL (mouse [1]; [9]) is reported as > 586 mg/kg/day and the NEL (mouse [1]; [9]) is reported as < 11.7 mg/kg/day. For the same molecule, the NOAEL (mouse [1]; [9]) was ≥ 586 mg/kg/day, the LEL (mouse [1]; [10]) was 586 mg/kg/day and the LOAEL (mouse [1]; [10]) was > 586 mg/kg/day. The NEL (mouse [1]; [10]) was 117 mg/kg/day and the NOAEL (mouse [1]; [10]) was ≥ 586 mg/kg/day.
In the case of `OCC(O)CO` [Glycerol], the LOAEL (rat [2]; [11]) is reported as > 1200 mg/kg/day, the NOAEL (rat [2]; [11]) is reported as ≥ 1200 mg/kg/day and the LEL (rat [2]; [12]) is reported as 300 mg/kg/day. The NEL (rat [2]; [12]) was < 300 mg/kg/day, the LEL (rat [2]; [13]) was 300 mg/kg/day and the LOAEL (rat [2]; [13]) was > 1200 mg/kg/day. The NEL (rat [2]; [13]) was < 300 mg/kg/day, the NOAEL (rat [2]; [13]) was ≥ 1200 mg/kg/day and the LEL (rat [3]; [11]) was 600 mg/kg/day. The LOAEL (rat [3]; [11]) was > 600 mg/kg/day, the NEL (rat [3]; [11]) was < 600 mg/kg/day and the NOAEL (rat [3]; [11]) was ≥ 600 mg/kg/day. For the same molecule, the LEL (rat [3]; [13]) was 600 mg/kg/day, the LOAEL (rat [3]; [13]) was > 600 mg/kg/day and the NEL (rat [3]; [13]) was < 600 mg/kg/day. For the same molecule, the NOAEL (rat [3]; [13]) was ≥ 600 mg/kg/day, the LEL (rat [4]; [11]) was 600 mg/kg/day and the LOAEL (rat [4]; [11]) was > 600 mg/kg/day. For the same molecule, the NEL (rat [4]; [11]) was < 600 mg/kg/day, the NOAEL (rat [4]; [11]) was ≥ 600 mg/kg/day and the LEL (rat [4]; [13]) was 600 mg/kg/day. The LOAEL (rat [4]; [13]) was > 600 mg/kg/day, the NEL (rat [4]; [13]) was < 600 mg/kg/day and the NOAEL (rat [4]; [13]) was ≥ 600 mg/kg/day. The LEL (rat [5]; [11]) was 600 mg/kg/day, the LOAEL (rat [5]; [11]) was > 1200 mg/kg/day and the NEL (rat [5]; [11]) was < 600 mg/kg/day. The NOAEL (rat [5]; [11]) was ≥ 1200 mg/kg/day, the LEL (rat [5]; [13]) was 600 mg/kg/day and the LOAEL (rat [5]; [13]) was > 1200 mg/kg/day. The NEL (rat [5]; [13]) was < 600 mg/kg/day and the NOAEL (rat [5]; [13]) was ≥ 1200 mg/kg/day.
With `CN=C=S` [Methyl isothiocyanate] the LEL (rat [6]; [14]) was 30 mg/kg/day, the LOAEL (rat [6]; [14]) was 30 mg/kg/day and the NEL (rat [6]; [14]) was 10 mg/kg/day. The NOAEL (rat [6]; [14]) was 10 mg/kg/day, the LEL (rat [6]; [15]) was 10 mg/kg/day and the LOAEL (rat [6]; [15]) was 10 mg/kg/day. For the same molecule, the NEL (rat [6]; [16]) was 3 mg/kg/day and the NOAEL (rat [6]; [16]) was 3 mg/kg/day.
`CCC#N` [Propionitrile] was tested, and the LEL (rat [7]; group: developmental, developmental / developmental malformation / bone / unossified) was 40 mg/kg/day, the LOAEL (rat [7]; [14]) was > 80 mg/kg/day and the NEL (rat [7]; [14]) was 20 mg/kg/day. The NOAEL (rat [7]; [14]) was ≥ 80 mg/kg/day, the LEL (rat [7]; [17]) was 80 mg/kg/day and the LOAEL (rat [7]; [17]) was > 80 mg/kg/day. For the same molecule, the NEL (rat [7]; [17]) was 40 mg/kg/day and the NOAEL (rat [7]; [17]) was ≥ 80 mg/kg/day.
`Cl.Cl.NCCNCCNCCN` [Trientine hydrochloride] was tested, and the LOAEL (mouse [8]; [18]) was > 1600 mg/kg/day, the NEL (mouse [8]; [18]) was 400 mg/kg/day and the NOAEL (mouse [8]; [18]) was ≥ 1600 mg/kg/day. The LEL (mouse [8]; group: developmental, developmental / developmental malformation / bone / delayed ossification + developmental / developmental malformation / bone / microcephaly…) was 800 mg/kg/day, the LEL (mouse [8]; [19]) was 1600 mg/kg/day and the LOAEL (mouse [8]; [19]) was > 1600 mg/kg/day. For the same molecule, the NEL (mouse [8]; [19]) was 800 mg/kg/day and the NOAEL (mouse [8]; [19]) was ≥ 1600 mg/kg/day.
